From patent US12134769B2, “MicroRNA-198 as a tumor suppressor in ovarian cancer” (Baylor College of Medicine, priority 2011, dated 2024)

How the values were obtained:
[1] = system: AsPC1 cells; assay: Migration, modified Boyden chamber assay; format: cell-based, human; details: stable miR-198 overexpression in AsPC1 cells, FIG. 14D
Protocol: (§1) Cell migration was determined with a modified Boyden chamber assay as described previously (Li et al., 2008). For invasion assays, Matrigel basement membrane matrix (BD Biosciences) was used by adding 100 ul of 1 mg/ml Matrigel to the migration chamber inserts prior to plating of the cells (Li et al., 2008, Bharadwaj).

[2] = system: MSLN CDS; assay: Dual-luciferase reporter assay, MSLN CDS constructs; format: cell-based, human; details: in the presence of miR-198
Text: (§2) For MSLN, six constructs were generated: 400 or 600 bp segments containing the WT sequence or specific 3-nucleotide mutations in the seed region of each miR-198 binding site were synthesized by GenScript and subcloned into the pEZX-MT01 3′UTR construct from Genecopoeia at Xba1 and BamH1 restriction sites such that they were inserted after the luciferase gene (FIG. 10). The same process was used for the VCP reporter constructs containing the full-length VCP 3′UTR (FIG. 10).
(§3) Dual luciferase assays were performed according to the manufacturer's instruction. Luciferase expression analysis was performed at 24 h using the Dual-luciferase kit (Promega) and Sirius Luminometer (Berthold Detection System). Results are presented as the ratio of firefly to Renilla luciferase activities, normalized to controls.

[3] = system: HPDE cells; assay: Migration assay; format: cell-based; details: 72 h
Protocol: as §1

[4] = system: MIA-MSLN cells; assay: Stable miR-198 overexpression, expression of network factors; format: cell-based, human; details: miR-198 overexpression in MIA-MSLN cells
Protocol: (§4) Western blots were performed as previously described (Li et al., 2008). Membranes were probed with: anti-MSLN monoclonal antibody (1:1000) (Abcam); PBX-1 polyclonal antibody (1:1000) and Caspase 3 antibody (1:1000) (Cell Signaling); OCT-2 polyclonal antibody (1:400), and VCP polyclonal antibody (1:200) (Santa Cruz Biotechnology); or anti-β-actin, Tubulin, LaminA or GAPDH antibodies (1:10,000) (Sigma Aldrich). Secondary incubation was performed with horseradish peroxidase-linked secondary antibody (1:2,000) (anti-mouse, anti-goat or anti-rabbit) (Cell Signaling).
(§5) MSLN-overexpressing stable cells (or empty vector controls) were selected in MIA PaCa-2 cells or HPDE cells (MIA-MSLN, HPDE-MSLN) or vector (MIA-V, HPDE-V) using retrovirus vectors expressing puromycin resistance (Origene) with 0.5 μg/mL of puromycin added into the medium as previously described (Zhang et al.). Stable cells overexpressing miR-198 or vector control were generated in AsPC-1 (AsPC-1-miR-198, AsPC-1-miR-Ctrl), MIA-MSLN (MIA-MSLN-miR-198, MIA-MSLN-miR-Ctrl), MIA-V (MIA-V-miR-198, MIA-V-miR-Ctrl), and HPDE cells (HPDE-miR-198, HPDE-miR-Ctrl) using the Lenti-miR miRNA Precursor Clone Collection (SBI). The miRZip Lentivector collection from SBI was used to stably knock down miR-198 in MIA-PaCa2 (MIA-V-Zip-198, MIA-V-Zip-Ctrl) and HPDE (HPDE-Zip-198, HPDE-Zip-Ctrl) cells.
(§6) Differential expression of 95 miRNAs chosen for their potential roles in cancer, cell development, and apoptosis was analyzed by RT-PCR using the QuantiMir System from SBI System Biosciences in both MIA-V and MIA-MSLN cells. The array plate also included the U6 transcript as a normalization signal. cDNAs from different cell lines and tissue samples were mixed with SYBR® Green Mastermix (Bio-Rad Laboratories) plus the universal reverse primer. Specific primers (1 μl) were added to each well of the qPCR plate. Expression levels of each mature miRNA were evaluated using comparative threshold cycle (Ct) method as normalized to that of U6 (2—ΔCt). The expression level of miR-198 was measured in all subsequent experiments using the same method. Real-time RT PCR was performed as previously described for MSLN, ZEB1, PBX-1, and VCP (Li et al., 2008).

[5] = system: AsPC1 cells; assay: as above; format: cell-based, human
Protocol: as §4, §5, §6

[6] = system: VCP 3′UTR; assay: Dual-luciferase reporter assay, VCP 3′UTR; format: cell-based; details: following miR-198 overexpression; firefly/Renilla ratio, 24 h
Text: as §2, §3

[7] = system: MIA-MSLN cells; assay: Cell proliferation assay (MTT); format: cell-based, human; details: MIA-MSLN-miR-198 cells, after 5 days
Protocol: (§7) Cells were seeded in 96-well plates (2×10^3 cells per well) and serum starved for 24 h prior to differential FBS additions. 3-(4,5-Dimethylthiazol-2-yl)-2,5-diphenyltetrazolium bromide (MTT) was used to measure cell proliferation as previously described (Bharadwaj et al., 2011b).
(§8) Cell growth was assessed using MTT at 2, 3, 4, 5 and 6 days after releasing from starvation (not all data shown). Briefly, twenty microliters of MTT reagent mixed with 100 μL of growth medium was added to each well and incubated at 37° C. for 2 h. Cells were then lysed overnight using 100 μl of lysis buffer consisting of 20% SDS in 1:1 dimethyl formamide; H2O solution. Absorbance was recorded at 520 nm with an EL-800 universal microplate reader (Bio-Tek Instruments). Relative proliferation was calculated by dividing the reading by a Day 0 reading taken prior to serum starvation.

[8] = system: AsPC1 cells; assay: Cell proliferation assay (MTT); format: cell-based, human; details: AsPC1-miR-198 cells
Protocol: as §7, §8

[9] = system: PBX-1 3′UTR; assay: Dual-luciferase reporter assay, PBX-1 3′UTR; format: cell-based; details: following miR-198 transfection/overexpression; firefly/Renilla ratio, 24 h
Protocol: A luciferase construct containing the first 491 bases of the PBX-1 3′UTR was purchased from Switchgear Genomics. Two mutant PBX-1 3′UTR reporters were subsequently generated using the Stratagene Quickchange Site-directed Mutagenesis kit, with the WT miR-198 binding site seed region either altered from TCTGGA to AAGCTT (a HindIII restriction site) or deleted entirely (FIG. 10).
as §3
The PBX-1 3′UTR region was cloned into the pSGG-3UTR vector (based on pGL4.11 vector with a MCS added after luciferase) after the reporter gene, firefly luciferase, whose expression is regulated by the SV40 promoter. A separate reporter for Renilla luciferase under the control of the CMV promoter was utilized to normalize for transfection efficiency. The identity of the 3′UTR sequence including the predicted miR-198 binding site was confirmed using the following primers: Fwd: […] [SEQ ID NO. 111], Rev: […]. [SEQ ID NO. 112]

miR-198: microRNA-198, SEQ ID NO: 1 gguccagaggggagauagg; used as transfected precursors (Ambion) or Lenti-miR stable overexpression (GGUCCAGAGGGGAGAUAGG; listed as RNA, chemistry not given here; listed as Homo sapiens)
migration reduced [1]: 33%
migration reduced ([1]; listed as MiR-198): > 50%
decrease in firefly luciferase expression, MSLN CDS site 2 WT construct [2]: almost completely
decrease in firefly luciferase expression, MSLN CDS site 3 WT construct [2]: ~70%
decrease in firefly luciferase expression, MSLN CDS site 1 construct ([2]; not statistically significant): slight reduction
migration [3]: did not seem to have an effect
MSLN expression at the protein level [4]: almost complete reduction of MSLN expression
MSLN mRNA expression levels [4]: partial decrease
PBX-1 mRNA and protein expression [4]: almost undetectable
VCP mRNA levels ([4]; FIG. 10I): reduces VCP down to MIA-V cell levels
VCP mRNA levels downregulated ([5]; ASPC1 cells following miR-198 overexpression, FIG. 10J): ~5 fold
VCP expression downregulated ([5]; AsPC1 cells following miR-198 overexpression, FIG. 3E): ~50 fold
PBX-1 mRNA and protein expression ([5]; miR-198 overexpression in AsPC1 cells): almost undetectable
decrease in VCP 3′UTR luciferase activity [6]: ~70%
lower proliferation rates than MIA-MSLN and MIA-MSLN-miR-Ctrl cells [7]: approximately 3 fold
proliferation rates vs AsPC1-miR-Ctrl cells [8]: significantly lower proliferation rates
reduction in PBX-1 3′UTR luciferase expression [9]: 65%
